Test results published in patent US12227500B2, “Substituted pyrrolo[2,3-b]pyridines for suppressing toxic endoplasmic reticulum stress” (THE TRUSTEES OF COLUMBIA UNIVERSITY IN THE CITY OF NEW YORK, priority 2018, dated 2025).
Where two headings read alike, the source gives them in different places.

Key:
Assay in all cases: Radiolabeled ATP kinase assay, panel of 371 kinases (Table S6)
Assay type in all cases: biochemical
[1] = molecular target: T1, panel of 371 human kinases (Homo sapiens, UniProt Q99683); details: ASK1/MAP3K5; 0.1 μM; 10 μM ATP; read-out: % Enzyme Activity (relative to DMSO controls)
T1 construct: purchased Reaction Biology Corp
Excerpt: (§1) ; FIG. 38C). […]. Further targeted analyses, such as genetic knock-down or knock-out, may be warranted to parse the role of these additional kinases in our model of neurodegeneration.

[2] = molecular target: T2, panel of 371 human kinases (Homo sapiens, UniProt Q9BZL6); details: PKD2/PRKD2; 0.1 μM; 10 μM ATP; read-out: % Enzyme Activity (relative to DMSO controls)
T2 construct: purchased Reaction Biology Corp
Excerpt: as §1

[3] = molecular target: T3, panel of 371 human kinases (Homo sapiens, UniProt P17948); details: FLT1/VEGFR1; 0.1 μM; 10 μM ATP; read-out: % Enzyme Activity (relative to DMSO controls)
T3 construct: purchased Reaction Biology Corp
T3 sequence (P17948 27-1338): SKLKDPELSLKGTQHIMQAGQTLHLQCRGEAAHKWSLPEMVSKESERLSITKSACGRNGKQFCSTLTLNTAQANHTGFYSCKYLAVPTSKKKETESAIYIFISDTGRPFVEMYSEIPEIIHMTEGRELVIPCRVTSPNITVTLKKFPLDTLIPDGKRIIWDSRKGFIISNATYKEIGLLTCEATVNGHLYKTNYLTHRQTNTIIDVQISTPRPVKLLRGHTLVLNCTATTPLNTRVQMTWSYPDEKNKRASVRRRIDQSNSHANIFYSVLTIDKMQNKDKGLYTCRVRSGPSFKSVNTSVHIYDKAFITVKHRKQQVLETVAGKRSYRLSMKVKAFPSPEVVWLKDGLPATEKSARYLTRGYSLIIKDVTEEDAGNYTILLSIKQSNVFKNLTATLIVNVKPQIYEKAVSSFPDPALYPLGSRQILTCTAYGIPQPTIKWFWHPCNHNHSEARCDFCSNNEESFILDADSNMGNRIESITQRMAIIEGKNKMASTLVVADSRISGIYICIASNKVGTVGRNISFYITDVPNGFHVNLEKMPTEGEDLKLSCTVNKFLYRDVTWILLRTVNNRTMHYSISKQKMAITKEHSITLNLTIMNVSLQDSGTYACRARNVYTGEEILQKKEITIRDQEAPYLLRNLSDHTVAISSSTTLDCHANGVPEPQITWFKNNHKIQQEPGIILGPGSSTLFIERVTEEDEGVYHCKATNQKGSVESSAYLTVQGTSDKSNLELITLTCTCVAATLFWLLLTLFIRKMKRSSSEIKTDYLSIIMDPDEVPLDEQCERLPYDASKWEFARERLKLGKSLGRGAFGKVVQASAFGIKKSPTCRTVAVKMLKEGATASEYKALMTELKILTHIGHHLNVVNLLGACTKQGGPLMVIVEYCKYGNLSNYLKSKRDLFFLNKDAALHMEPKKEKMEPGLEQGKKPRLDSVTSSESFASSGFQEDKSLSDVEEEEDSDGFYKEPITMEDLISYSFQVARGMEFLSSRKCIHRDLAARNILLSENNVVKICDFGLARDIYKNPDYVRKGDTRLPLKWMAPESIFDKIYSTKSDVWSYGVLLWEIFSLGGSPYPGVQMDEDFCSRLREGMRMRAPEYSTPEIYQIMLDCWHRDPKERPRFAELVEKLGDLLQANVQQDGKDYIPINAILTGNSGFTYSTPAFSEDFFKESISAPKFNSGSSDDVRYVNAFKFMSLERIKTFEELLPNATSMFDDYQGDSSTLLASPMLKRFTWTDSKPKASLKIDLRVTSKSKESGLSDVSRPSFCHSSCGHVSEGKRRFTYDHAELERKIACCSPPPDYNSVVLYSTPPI
Excerpt: as §1

[4] = molecular target: T4, panel of 371 human kinases (Homo sapiens, UniProt Q9UBS0); details: p70S6Kb/RPS6KB2; 0.1 μM; 10 μM ATP; read-out: % Enzyme Activity (relative to DMSO controls)
T4 construct: purchased Reaction Biology Corp
Excerpt: as §1

[5] = molecular target: T5, panel of 371 human kinases (Homo sapiens, UniProt Q8N4C8); details: for remaining activity at 0.1 µM: MINK/MINK1, 10 μM ATP, read-out: % Enzyme Activity (relative to DMSO controls)
T5 construct: purchased Reaction Biology Corp
T5 sequence (Q8N4C8 whole entry): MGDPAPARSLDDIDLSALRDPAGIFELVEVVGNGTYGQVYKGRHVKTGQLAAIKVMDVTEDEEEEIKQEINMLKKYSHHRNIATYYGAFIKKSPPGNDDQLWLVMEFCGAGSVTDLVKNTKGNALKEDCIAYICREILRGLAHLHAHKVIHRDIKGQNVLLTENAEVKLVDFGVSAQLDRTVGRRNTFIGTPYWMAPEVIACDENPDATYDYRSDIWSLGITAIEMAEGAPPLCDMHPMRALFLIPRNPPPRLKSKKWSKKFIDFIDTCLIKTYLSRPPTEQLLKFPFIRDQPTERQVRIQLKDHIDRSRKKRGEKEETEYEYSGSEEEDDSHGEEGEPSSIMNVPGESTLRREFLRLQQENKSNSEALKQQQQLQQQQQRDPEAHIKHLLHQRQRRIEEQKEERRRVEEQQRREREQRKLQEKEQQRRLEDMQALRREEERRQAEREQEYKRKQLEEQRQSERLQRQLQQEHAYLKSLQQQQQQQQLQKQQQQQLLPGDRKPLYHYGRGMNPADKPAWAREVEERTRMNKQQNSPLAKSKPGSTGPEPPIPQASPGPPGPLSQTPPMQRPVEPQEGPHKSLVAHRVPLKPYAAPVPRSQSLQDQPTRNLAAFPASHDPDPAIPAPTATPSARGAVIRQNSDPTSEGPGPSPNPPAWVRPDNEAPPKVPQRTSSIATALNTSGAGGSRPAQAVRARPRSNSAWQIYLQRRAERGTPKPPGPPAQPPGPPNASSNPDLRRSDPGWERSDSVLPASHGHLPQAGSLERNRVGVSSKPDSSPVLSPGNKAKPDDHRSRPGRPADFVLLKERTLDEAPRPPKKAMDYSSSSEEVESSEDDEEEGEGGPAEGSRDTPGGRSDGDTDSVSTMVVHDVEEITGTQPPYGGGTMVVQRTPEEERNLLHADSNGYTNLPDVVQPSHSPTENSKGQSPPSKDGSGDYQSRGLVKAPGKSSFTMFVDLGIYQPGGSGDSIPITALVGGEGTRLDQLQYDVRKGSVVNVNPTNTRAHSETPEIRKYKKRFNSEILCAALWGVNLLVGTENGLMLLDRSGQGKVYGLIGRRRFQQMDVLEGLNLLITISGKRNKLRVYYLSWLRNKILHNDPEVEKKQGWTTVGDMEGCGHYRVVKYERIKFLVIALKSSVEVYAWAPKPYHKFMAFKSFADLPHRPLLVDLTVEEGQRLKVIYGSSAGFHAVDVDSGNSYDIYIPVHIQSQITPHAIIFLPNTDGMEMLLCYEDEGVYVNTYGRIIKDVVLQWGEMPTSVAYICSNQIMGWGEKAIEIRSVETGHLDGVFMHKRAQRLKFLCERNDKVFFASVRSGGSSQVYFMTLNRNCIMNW
Excerpt: as §1

[6] = molecular target: T6, panel of 371 human kinases (Homo sapiens, UniProt P42680); details: TEC; 0.1 μM; 10 μM ATP; read-out: % Enzyme Activity (relative to DMSO controls)
T6 construct: purchased Reaction Biology Corp
T6 sequence (P42680 whole entry): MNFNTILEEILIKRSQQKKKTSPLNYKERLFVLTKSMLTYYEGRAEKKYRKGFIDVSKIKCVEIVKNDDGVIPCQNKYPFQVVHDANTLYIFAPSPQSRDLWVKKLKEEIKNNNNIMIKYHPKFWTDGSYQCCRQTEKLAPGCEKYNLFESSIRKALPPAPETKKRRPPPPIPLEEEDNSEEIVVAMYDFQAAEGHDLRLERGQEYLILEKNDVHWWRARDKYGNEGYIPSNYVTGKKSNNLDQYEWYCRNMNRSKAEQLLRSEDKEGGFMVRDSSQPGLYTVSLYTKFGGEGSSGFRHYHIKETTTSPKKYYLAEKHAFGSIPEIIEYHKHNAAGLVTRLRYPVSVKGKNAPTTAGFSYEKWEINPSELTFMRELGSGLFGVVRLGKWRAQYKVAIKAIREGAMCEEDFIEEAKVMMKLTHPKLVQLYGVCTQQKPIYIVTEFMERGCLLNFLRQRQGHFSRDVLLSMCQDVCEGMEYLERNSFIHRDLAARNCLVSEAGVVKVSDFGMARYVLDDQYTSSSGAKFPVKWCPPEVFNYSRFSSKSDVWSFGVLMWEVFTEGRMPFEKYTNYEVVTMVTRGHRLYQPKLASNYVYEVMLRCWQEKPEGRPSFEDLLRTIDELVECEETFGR
Excerpt: as §1

[7] = molecular target: T7, panel of 371 human kinases (Homo sapiens, UniProt P51955); details: NEK2; 0.1 μM; 10 μM ATP; read-out: % Enzyme Activity (relative to DMSO controls)
T7 construct: purchased Reaction Biology Corp
T7 sequence (P51955 whole entry): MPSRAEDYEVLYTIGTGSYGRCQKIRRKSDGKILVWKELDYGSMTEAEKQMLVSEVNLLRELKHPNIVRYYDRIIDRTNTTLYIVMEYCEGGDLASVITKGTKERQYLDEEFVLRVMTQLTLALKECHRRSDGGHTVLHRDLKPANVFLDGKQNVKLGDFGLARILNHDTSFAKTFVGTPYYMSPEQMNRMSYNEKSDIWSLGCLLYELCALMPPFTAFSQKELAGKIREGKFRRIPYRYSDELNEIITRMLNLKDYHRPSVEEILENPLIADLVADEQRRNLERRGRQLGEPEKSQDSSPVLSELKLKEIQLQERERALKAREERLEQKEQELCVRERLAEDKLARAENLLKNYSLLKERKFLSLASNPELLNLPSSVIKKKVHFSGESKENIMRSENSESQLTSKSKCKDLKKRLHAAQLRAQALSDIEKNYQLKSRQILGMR
Excerpt: as §1

[8] = molecular target: T8, panel of 371 human kinases (Homo sapiens, UniProt Q15746); details: MLCK/MYLK; 0.1 μM; 10 μM ATP; read-out: % Enzyme Activity (relative to DMSO controls)
T8 construct: purchased Reaction Biology Corp
Excerpt: as §1

[9] = molecular target: T9, panel of 371 human kinases (Homo sapiens, UniProt P53778); details: P38g; 0.1 μM; 10 μM ATP; read-out: % Enzyme Activity (relative to DMSO controls)
T9 construct: purchased Reaction Biology Corp
Excerpt: as §1

[10] = molecular target: T10, panel of 371 human kinases (Homo sapiens, UniProt Q8N568); details: DCAMKL2; 0.1 μM; 10 μM ATP; read-out: % Enzyme Activity (relative to DMSO controls)
T10 construct: purchased Reaction Biology Corp
Excerpt: as §1

[11] = molecular target: T11, panel of 371 human kinases (Homo sapiens, UniProt Q9HBY8); details: SGK2; 0.1 μM; 10 μM ATP; read-out: % Enzyme Activity (relative to DMSO controls)
T11 construct: purchased Reaction Biology Corp
Excerpt: as §1

[12] = molecular target: T12, panel of 371 human kinases (Homo sapiens, UniProt P53779); details: JNK3; 0.1 μM; 10 μM ATP; read-out: % Enzyme Activity (relative to DMSO controls)
T12 construct: purchased Reaction Biology Corp
Excerpt: as §1

[13] = molecular target: T13, panel of 371 human kinases (Homo sapiens, UniProt Q8IY84); details: NIM1; 0.1 μM; 10 μM ATP; read-out: % Enzyme Activity (relative to DMSO controls)
T13 construct: purchased Reaction Biology Corp
Excerpt: as §1

[14] = molecular target: T14, panel of 371 human kinases (Homo sapiens, UniProt Q16620); details: TRKB; 0.1 μM; 10 μM ATP; read-out: % Enzyme Activity (relative to DMSO controls)
T14 construct: purchased Reaction Biology Corp
Excerpt: as §1

[15] = molecular target: T15, panel of 371 human kinases (Homo sapiens, UniProt P48730); details: CK1d; 0.1 μM; 10 μM ATP; read-out: % Enzyme Activity (relative to DMSO controls)
T15 construct: purchased Reaction Biology Corp
Excerpt: as §1

[16] = molecular target: T16, panel of 371 human kinases (Homo sapiens, UniProt Q08881); details: ITK; 0.1 μM; 10 μM ATP; read-out: % Enzyme Activity (relative to DMSO controls)
T16 construct: purchased Reaction Biology Corp
Excerpt: as §1

[17] = molecular target: T17, panel of 371 human kinases (Homo sapiens, UniProt Q14680); details: MELK; 0.1 μM; 10 μM ATP; read-out: % Enzyme Activity (relative to DMSO controls)
T17 construct: purchased Reaction Biology Corp
Excerpt: as §1

[18] = molecular target: T18, panel of 371 human kinases (Homo sapiens, UniProt P30291); details: WEE1; 0.1 μM; 10 μM ATP; read-out: % Enzyme Activity (relative to DMSO controls)
T18 construct: purchased Reaction Biology Corp
Excerpt: as §1

[19] = molecular target: T19, panel of 371 human kinases (Homo sapiens, UniProt Q14289); details: PYK2; 0.1 μM; 10 μM ATP; read-out: % Enzyme Activity (relative to DMSO controls)
T19 construct: purchased Reaction Biology Corp
Excerpt: as §1

[20] = molecular target: T20, panel of 371 human kinases (Homo sapiens, UniProt Q96PN8); details: TSSK3/STK22C; 0.1 μM; 10 μM ATP; read-out: % Enzyme Activity (relative to DMSO controls)
T20 construct: purchased Reaction Biology Corp
Excerpt: as §1

[21] = molecular target: T21, panel of 371 human kinases (Homo sapiens, UniProt P57078); details: RIPK4; 0.1 μM; 10 μM ATP; read-out: % Enzyme Activity (relative to DMSO controls)
T21 construct: purchased Reaction Biology Corp
Excerpt: as §1

[22] = molecular target: T22, panel of 371 human kinases (Homo sapiens, UniProt Q9P0L2); details: MARK1; 0.1 μM; 10 μM ATP; read-out: % Enzyme Activity (relative to DMSO controls)
T22 construct: purchased Reaction Biology Corp
T22 sequence (Q9P0L2 whole entry): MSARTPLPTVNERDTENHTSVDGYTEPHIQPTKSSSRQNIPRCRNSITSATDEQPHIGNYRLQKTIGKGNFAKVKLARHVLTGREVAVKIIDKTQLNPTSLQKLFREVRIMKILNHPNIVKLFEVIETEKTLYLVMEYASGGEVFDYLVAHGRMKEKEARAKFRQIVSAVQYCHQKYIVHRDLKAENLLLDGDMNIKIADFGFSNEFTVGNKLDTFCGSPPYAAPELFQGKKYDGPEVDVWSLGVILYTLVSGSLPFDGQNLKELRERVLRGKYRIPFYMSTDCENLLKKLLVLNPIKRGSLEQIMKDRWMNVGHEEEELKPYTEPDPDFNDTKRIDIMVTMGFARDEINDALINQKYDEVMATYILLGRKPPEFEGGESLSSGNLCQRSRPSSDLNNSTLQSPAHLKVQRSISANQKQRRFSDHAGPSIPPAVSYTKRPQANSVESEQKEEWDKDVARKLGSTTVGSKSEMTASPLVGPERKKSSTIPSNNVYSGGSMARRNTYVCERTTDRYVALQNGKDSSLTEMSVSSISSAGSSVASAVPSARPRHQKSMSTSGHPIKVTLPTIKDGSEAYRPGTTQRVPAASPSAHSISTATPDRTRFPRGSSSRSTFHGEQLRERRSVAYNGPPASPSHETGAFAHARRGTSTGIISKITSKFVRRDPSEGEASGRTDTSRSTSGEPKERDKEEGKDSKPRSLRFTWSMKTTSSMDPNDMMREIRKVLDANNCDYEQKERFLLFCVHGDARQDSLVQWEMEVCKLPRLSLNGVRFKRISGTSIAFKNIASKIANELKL
Excerpt: as §1

[23] = molecular target: T23, panel of 371 human kinases (Homo sapiens, UniProt O75716); details: STK16; 0.1 μM; 10 μM ATP; read-out: % Enzyme Activity (relative to DMSO controls)
T23 construct: purchased Reaction Biology Corp
Excerpt: as §1

[24] = molecular target: T24, panel of 371 human kinases (Homo sapiens, UniProt P11802); details: 0.1 μM, 10 μM ATP, read-out: % Enzyme Activity (relative to DMSO controls)
T24 construct: purchased Reaction Biology Corp
T24 sequence (P11802 whole entry): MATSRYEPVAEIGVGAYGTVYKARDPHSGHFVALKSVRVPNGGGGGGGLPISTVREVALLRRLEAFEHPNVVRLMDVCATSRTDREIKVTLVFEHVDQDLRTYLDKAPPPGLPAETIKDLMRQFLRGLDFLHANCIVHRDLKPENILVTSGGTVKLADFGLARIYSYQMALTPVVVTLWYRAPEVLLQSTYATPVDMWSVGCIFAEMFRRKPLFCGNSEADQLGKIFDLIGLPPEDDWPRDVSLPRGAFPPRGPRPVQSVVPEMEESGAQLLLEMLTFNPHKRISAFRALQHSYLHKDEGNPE
Excerpt: as §1

CN1CCN(Cc2ccc(-c3cnc4[nH]cc(-c5ccc6[nH]ccc6c5)c4c3)cc2)CC1 [Compound 1, 3-(1H-Indol-5-yl)-5-(4-((4-methylpiperazin-1-yl)methyl)phenyl)-1H-pyrrolo[2,3-b]pyridine, reference compound]
remaining activity at 0.1 µM [1]: 103% | remaining activity at 0.1 µM [2]: 23.2% | remaining activity at 0.1 µM [3]: 88.2% | remaining activity at 0.1 µM [4]: 107% | remaining activity at 0.1 µM [5]: 22.6% | remaining activity at 0.1 µM [6]: 106% | remaining activity at 0.1 µM [7]: 96.2% | remaining activity at 0.1 µM [8]: 93.4% | remaining activity at 0.1 µM [9]: 108% | remaining activity at 0.1 µM [10]: 87.1% | remaining activity at 0.1 µM [11]: 92.8% | remaining activity at 0.1 µM [12]: 89.5% | remaining activity at 0.1 µM [13]: 106% | remaining activity at 0.1 µM [14]: 59.3% | remaining activity at 0.1 µM [15]: 90% | remaining activity at 0.1 µM [16]: 101% | remaining activity at 0.1 µM [17]: 48.1% | remaining activity at 0.1 µM [18]: 114% | remaining activity at 0.1 µM [19]: 84.8% | remaining activity at 0.1 µM [20]: 146% | remaining activity at 0.1 µM [21]: 98.3% | remaining activity at 0.1 µM [22]: 86.2% | remaining activity at 0.1 µM [23]: 100% | remaining activity at 0.1 µM ([24]; CDK4/cyclin D1): 69.2% | remaining activity at 0.1 µM ([24]; CDK4/cyclin D3): 90.9%

OCCN1CCN(Cc2ccc(-c3cnc4[nH]cc(-c5cccc(Cl)c5)c4c3)cc2)CC1 [Compound 12k, 2-(4-(4-(3-(3-Chlorophenyl)-1H-pyrrolo[2,3-b]pyridin-5-yl)benzyl)piperazin-1-yl)ethan-1-ol]
remaining activity at 0.1 µM [1]: 95.7% | remaining activity at 0.1 µM [2]: 9.36% | remaining activity at 0.1 µM [3]: 90.9% | remaining activity at 0.1 µM [4]: 95% | fold change in MINK1 activity following 12k exposure relative to 1 ([5]; 0.025 μM): 22.56 fold | remaining activity at 0.1 µM [5]: -0.71% | remaining activity at 0.1 µM [6]: 99.9% | remaining activity at 0.1 µM [7]: 92% | remaining activity at 0.1 µM [8]: 99.1% | remaining activity at 0.1 µM [9]: 99.7% | remaining activity at 0.1 µM [10]: 87.6% | remaining activity at 0.1 µM [11]: 96.7% | remaining activity at 0.1 µM [12]: 94.4% | remaining activity at 0.1 µM [13]: 105% | remaining activity at 0.1 µM [14]: 77.4% | remaining activity at 0.1 µM [15]: 92.8% | remaining activity at 0.1 µM [16]: 102% | remaining activity at 0.1 µM [17]: 71% | remaining activity at 0.1 µM [18]: 86.6% | remaining activity at 0.1 µM [19]: 89.2% | remaining activity at 0.1 µM [20]: 129% | remaining activity at 0.1 µM [21]: 98% | remaining activity at 0.1 µM [22]: 52.5% | remaining activity at 0.1 µM [23]: 109% | remaining activity at 0.1 µM ([24]; CDK4/cyclin D1): 56.4% | remaining activity at 0.1 µM ([24]; CDK4/cyclin D3): 67.2%
